Data taken from patent US20200253979A1, “THERAPEUTIC METHODS RELATING TO HSP90 INHIBITORS” (AI Therapeutics, Inc., priority 2017, published 2020).
Like-named read-outs stand apart in the source and are kept apart here. Each block holds one compound with its values, some of them ahead of it.

Assays:
[1] = test system: MOLM-13 FLT3-ITD AML cell line; assay: Systemic survival xenograft study, MPC-0767 with 5′azacitidine; conditions: single agents: MPC-0767 75 mg/kg p.o.; 5′azacitidine 2 mg/kg QD×4 i.p.; vs vehicle
Protocol: A systemic survival xenograft study was performed using the MOLM-13 FLT3-ITD harboring AML cell line.
Before tumor cell inoculation, NOD/SCID mice were pre-treated for 2 days with a daily intraperitoneal injection of 100 mg/kg cyclophosphamide to facilitate engraftment of the human MOLM-13 tumor cells. After the injection of cyclophosphamide, the animals were allowed to recover for 24 hours prior to inoculation with human MOLM-13 tumor cells. Each mouse was then inoculated with 1×10^7 MOLM-13 cells in 100 μL PBS via intravenous tail vein injection. Mice were next randomized into 4 groups of 6 mice each. […] Viability and body weight loss were monitored daily.

MOLM-14 cells (FLT3-ITD) = assay: CellTiter-Glo cell viability (single agent and combination); assay type: cell-based; conditions: for combination index (CI) of AML drug in combination with MPC-0767: MOLM-14, 72 hours, average CI (* n=1); for IC50: Homo sapiens, MOLM-14, 72 h, 72 hours, read-out: EC50 (cell viability)
Protocol: HS-5 is a human marrow stromal cell line that secretes various growth factors sufficient to support hematopoietic progenitor growth (Roecklein et al., Blood, 1995) which thus mimics stromal conditions.
(§1) Three cell lines which harbor FLT3-ITD were used for the drug combination studies (MV-4-11, MOLM-13, and MOLM-14).
(§2) Cells were treated with the drugs (single agent or combination) for 72 hours. Drug combination activity was determined by first measuring cell viability with CellTiter-Glo®, followed by the calculation of the EC50 corresponding to single agent activity, using the R DRC package (R Core Team, 2017). The combination index (CI) values were computed using the Chou-Talalay method (Chou T, Cancer Research., 2010 70(2): 440-6.), based on the viability of each drug alone and in combination, across all concentrations tested. In brief, CI was defined as: […]
(§3) Loss of function mutations of KDM6A are observed in FLT3-ITD AML (Garg et al., 2015 Blood 126 (22):2491-501). […] To therapeutically exploit this finding, we hypothesized that inhibiting EZH2, the histone H3K27 methyltransferase that functionally opposes KDM6A, would enhance sensitivity to MPC-0767. To test this hypothesis, a FLT3-ITD cell line (MV-4-11) was used and treated with either of the two clinical stage EZH2 inhibitors, EPZ-6438 and CPI-1205, at 8 different concentrations for 4 days. Following this time, cells were counted, reseeded and treated with 8 concentrations of EZH2 inhibitor alone, 8 concentrations of MPC-0767 alone, or the combination of the two (64 total combinations).

MV-4-11 cells (FLT3-ITD) = assay: as above; assay type: cell-based; conditions: MV-4-11, 72 hours, average CI
Protocol: as §1, §2, §3

[2] = cited from earlier work
MOLM-13 cells (FLT3-ITD) = assay: CellTiter-Glo cell viability (combination); assay type: cell-based, human; conditions: MOLM-13, 72 hours, average CI
Protocol: as §1, §2

MOLM-13-LUC cells = assay: CellTiter-Glo cell viability; assay type: cell-based; conditions: Homo sapiens, 72 hours
Source text: (§4) In the clinic, tyrosine kinase inhibitors that target FLT3 initially show positive responses, but patients inevitably relapse due to the development of drug-resistance through various mechanisms, as discussed above.

[3] = test system: MOLM-13-R-PKC412 (midostaurin-resistant) cells; assay: CellTiter-Glo cell viability; assay type: cell-based, human
Source text: as §4

[4] = test system: BaF3 cells harboring FLT3-ITD; assay: CellTiter-Glo cell viability; assay type: cell-based, murine; conditions: Mus musculus, 72 hours
Protocol: After this time cell viability was determined using CTG and EC50 values determined.
(§5) EC50 values were calculated using equation 1 (as described above).
BaF3 cells require the supplementation of IL-3 to activate the IL-3 receptor for growth. However, in BaF3 cells transfected with FLT3-ITD, cells no longer require IL3 as survival is solely driven by oncogenic FLT3 signaling.

[5] = test system: BaF3 cells harboring FLT3-ITD F691L; assay: CellTiter-Glo cell viability; assay type: cell-based, murine
Protocol: as §5

[6] = test system: cell surface FLT3 in MOLM-13 cells; assay: Cell surface FLT3 by flow cytometry; assay type: cell-based, human; conditions: MOLM-13; MPC-0767 800 nM, ATO 625 nM or combination; 24 hours
Protocol: (§6) To determine whether MPC-0767 can promote the degradation of FLT3-ITD and abolish downstream signaling, MV-4-11 and MOLM-13 cells were treated with vehicle or MPC-0767 (1 μM) for 24 hours. Cells were harvested for flow cytometry to assess cell surface FLT3 protein abundance. In addition, the measurement of a key phosphorylation site of S6 (phospho-S6) was used as a marker for oncogenic FLT3-ITD signaling (Zimmerman et al., Blood. 2013 122(22): 3607-3615). Indeed, in both MV-4-11 and MOLM-13 cells treated with MPC-0767 there was a >65% reduction in cell surface FLT3 (FIGS. 10A and 10B, respectively) and >70% reduction in phospho-S6 (FIGS. 10C and 10D, respectively).
(§7) We next explored whether the synergistic activity of MPC-0767 and ATO was due to a more complete abrogation of FLT3-ITD oncogenic signaling. […] After this time cells were harvested for the assessment of cell surface FLT3 expression by flow cytometry. To additionally measure the effects of abrogating FLT3, we assessed phospho-ERK (pERK) and phospho-S6 (pS6), as these are two known downstream effectors.

[7] = test system: phospho-S6 in MOLM-13 cells; assay: Phospho-S6 by flow cytometry; assay type: cell-based, human; conditions: MOLM-13; MPC-0767 800 nM, ATO 625 nM or combination; 24 hours
Protocol: as §6, §7

[8] = test system: phospho-ERK (pERK) in MOLM-13 cells; assay: Phospho-ERK level; assay type: cell-based, human; conditions: MPC-0767 800 nM, ATO 625 nM or combination, 24 hours
Source text: as §7

[9] = test system: PD-1+ Jurkat reporter cells with THP-1 AML cells; assay: Jurkat NFAT-luciferase reporter T cell activation with THP-1 cells; assay type: cell-based; conditions: THP-1 treated 24 hr with IFNγ 50 ng/ml; PD-L1 blocking antibody added
Source text: The addition of antibodies that block the PD-1/PD-L1 pathway stimulate an increased T cell response in vitro, in pre-clinical animal models, and in cancer patients. This can lead to tumor regressions or tumor clearance in patients. To examine MPC-0767 effects on PD-L1 and T cell activation, we used a model system in which PD-1+ Jurkat T cells express luciferase under the control of the NFAT promoter (Promega, hereafter referred to Jurkat reporter cells). When T cells are stimulated through the T cell receptor (TCR), activation of the NFAT pathway drives expression of luciferase.
We next determined whether MPC-0767 reduction of PD-L1 could increase T cell stimulation similar to anti-PD-L1 blocking antibodies. THP-1 cells were treated overnight with IFNγ in the presence or absence of MPC-0767 (1 μM or 2 uM). THP-1 cells were washed and a portion saved for flow cytometry analysis of PD-L1 expression. The remaining cells were incubated with Jurkat reporter cells and anti-CD3 (10 ng/ml) for 6 hours.

[10] = MOLM-14, stromal media (HS-5 conditioned)

Compound: Nc1ncn([C@@H]2O[C@H](CO)[C@@H](O)[C@H]2O)c(=O)n1 [5′azacitidine, reference compound]
increase in median survival [1]: 8 days

Compound: Nc1ccn([C@@H]2O[C@H](CO)[C@@H](O)[C@@H]2O)c(=O)n1 [Cytarabine, cytarabine]
combination index (CI) of AML drug in combination with MPC-0767 (MOLM-14 cells (FLT3-ITD)): CI = 0.9* | combination index (CI) of AML drug in combination with MPC-0767 (MV-4-11 cells (FLT3-ITD)): CI = 0.8

Compound: C[C@H](O)C(=O)N1CCC(CCn2c(Sc3cc4c(cc3Br)OCO4)nc3c(N)ncnc32)CC1 [MPC-3100, (2S)-1-[4-(2-{6-Amino-8-[(6-bromo-1,3-benzodioxol-5-yl)sulfanyl]-9H-purin-9-yl}ethyl)piperidin-1-yl]-2-hydroxypropan-1-one, reference compound]
aqueous solubility [2]: poor solubility

Compound: CNC(=O)c1cc(Oc2ccc(NC(=O)Nc3ccc(Cl)c(C(F)(F)F)c3)cc2)ccn1 [Sorafenib, sorafenib]
combination index (CI) of AML drug in combination with MPC-0767 (MV-4-11 cells (FLT3-ITD)): CI = 0.8

Compound: CC1(C)CCC(CN2CCN(c3ccc(C(=O)NS(=O)(=O)c4ccc(NCC5CCOCC5)c([N+](=O)[O-])c4)c(Oc4cnc5[nH]ccc5c4)c3)CC2)=C(c2ccc(Cl)cc2)C1 [Venetoclax, venetoclax]
combination index (CI) of AML drug in combination with MPC-0767 (MOLM-14 cells (FLT3-ITD)): CI = 0.6 | combination index (CI) of AML drug in combination with MPC-0767 (MV-4-11 cells (FLT3-ITD)): CI = 0.7 | combination index (CI) of AML drug in combination with MPC-0767 (MV-4-11 cells (FLT3-ITD); listed as venetoclax): 0.7 | combination index (CI) of AML drug in combination with MPC-0767 (MOLM-13 cells (FLT3-ITD)): CI = 0.3 | combination index (CI) of AML drug in combination with MPC-0767 (MOLM-13 cells (FLT3-ITD); listed as venetoclax): 0.3

EC50 (MOLM-13-LUC cells): 9 nM | EC50 ([3]; Homo sapiens, MOLM-13-R-PKC412, 72 hours): 25 nM | fold difference in EC50, midostaurin-resistant vs control cells ([3]; MOLM-13-R-PKC412 vs MOLM-13-LUC): approximately 3 fold | IC50 (MOLM-14 cells (FLT3-ITD); MOLM-14, non-stromal media): 3 nM | IC50 (MOLM-14 cells (FLT3-ITD); [10]): > 100 nM | EC50 [4]: 4 nM | EC50 ([5]; Mus musculus, BaF3 FLT3-ITD-F691L, 72 hours): 90 nM
Compound: CC1(COc2ccc3c(c2)ncn3-c2ccc3cccc(N4CCC(N)CC4)c3n2)COC1 [crenolanib]
combination index (CI) of AML drug in combination with MPC-0767 (MV-4-11 cells (FLT3-ITD)): CI = 0.7 | combination index (CI) of AML drug in combination with MPC-0767 (MOLM-13 cells (FLT3-ITD)): CI = 0.9 | fold resistance, FLT3-ITD-F691L vs FLT3-ITD ([5]; BaF3, 72 hours): approximately 23 fold

IC50 (MOLM-14 cells (FLT3-ITD); MOLM-14, non-stromal media): 6 nM | IC50 (MOLM-14 cells (FLT3-ITD); [10]): > 100 nM
Compound: CCc1nc(C(N)=O)c(Nc2ccc(N3CCC(N4CCN(C)CC4)CC3)c(OC)c2)nc1NC1CCOCC1 [gilteritinib]
combination index (CI) of AML drug in combination with MPC-0767 (MOLM-13 cells (FLT3-ITD)): CI = 0.9

Compound: arsenic trioxide [ATO, reference compound]
FLT3 level (cell surface) [6]: reduced | pS6 level [7]: reduced | pERK level [8]: mildly reduced

Compound: atezolizulmab: PD-L1 blocking antibody
T cell activation (luciferase) [9]: restores T cell activation to untreated levels
